According to patent publication US7214659B2, “Reduction of the electrocardiographic QT interval” (Creative Peptides Sweden AB, priority 2000, dated 2007):

Legend:
[1] = test system: IDDM patients with autonomic neuropathy; test: QTc interval during 3 h i.v. C-peptide infusion, randomized double-blind study (Example 1); format: in vivo, human; settings: during three hours of C-peptide i.v., 6 pico mole per kg per minute; basal QTc 0.429±0.004s; decreased significantly, p<0.05
Procedure: The QTc interval will vary from patient to patient but can generally be considered prolonged when it exceeds 420 ms in men and 430 ms in women. QTc is the corrected (for heart rate influence) QT interval. It is calculated according to Bazett's formula (QTc=QT/√{square root over (R)}R). QT and RR are conveniently measured using a ruler on an ECG tracing; the QT interval is measured from the beginning of the QRS complex to the end of the crossing of the isoelectric line of the T wave, see the stylised representation in FIG. 1. Any reduction in the interval can be beneficial to the patient, preferably the interval will be reduced by at least 3 ms, more preferably treatment will reduce the QTc interval by at least 5 ms, particularly preferably at least 8 ms even at least 10 ms. […]
Before and during the three hour session a complete 12 lead electrocardiogram was recorded to evaluate heart rate variability during deep breathing. […] The […] (one patient could not take part in a second session and one patient's ECG tracing was not possible to evaluate) were analyzed blindly by two persons. The RR and QT interval were measured with a ruler. […] Five intervals from the precordial leads and five intervals from the extremity leads were measured on each occasion and a mean was calculated. […]

[2] = Plasma C-peptide and blood glucose levels during 3 h i.v. C-peptide infusion (Example 1); format: in vivo; settings: both sexes, human, iv, during the C-peptide infusion, 6 pico mole per kg per minute i.v. for 180 minutes, 0.11±0.02 nmol/l before the study
From the text: In this study 12 IDDM patients (six male and six female) with autonomic neuropathy participated in two different sessions in a randomized, double-blind study (one patient attended one time only). Their mean age was 40 and mean duration of diabetes was 21 years. In eight patients the fasting plasma C-peptide levels were below the detection limit (<0.10 nmol/l), the remaining four varied between 0.13 and 0.25 nmol/l. Eleven patients had decreased heart rate variability during deep breathing as evidence of autonomic neuropathy. On each occasion they received insulin i.v. for 9–12 hours before the study and blood glucose levels were tested every 1–2 hours during the night. The insulin infusion was adjusted to achieve euglycaemia (5–6 mmol/l). The patients were then given either saline or C-peptide i.v. for 180 minutes. 6 pico mole per kg per minute was administered.

[3] = test system: IDDM patients; test: QTc interval after 3 months of s.c. C-peptide, randomised cross over study (Example 2); format: in vivo, human; settings: 6 patients with prolonged QTc interval at the outset (>420 ms), 600 nmol per 24 h s.c. in 3 doses
Procedure: In a further study (different results from which were published in Diabetic Medicine, Vol. 17 (2000) p. 181–189, Johannson, Bo-Lennart et al.) 21 IDDM patients were monitored for 6 months according to a randomised cross over regimen wherein C-peptide was administered for 3 months and a placebo.
Further details of the study can be found in the above referenced paper in Diabetic Medicine but in summary, biosynthetic human C-peptide (Eli Lilly Co.) or a placebo comprising just the C-peptide solvent was injected sub-cutaneously 3 times per day. The total 24 h dose of C-peptide was 600 nmol (225 nmol 30 mins before breakfast, 150 nmol before dinner and 225 nmol at bedtime).
ECGs were recorded at the start of the programme and after 3 and then 6 months of the study. These recordings were then used to measure the QTc interval as described in Example 1.

[4] = test system: patients with IDDM; test: QTc interval during 3 h C-peptide infusion, randomised double blind study (Example 3); format: in vivo, human; settings: infused for 3 hours; NaCl placebo; FIG. 4
Procedure: Twelve patients were investigated twice in a randomised double blind study where C-peptide or a NaCl placebo were infused for 3 hours. The same procedure as described in Example 1 was followed.

CC(C)C[C@H](NC(=O)[C@H](C)NC(=O)[C@H](CC(C)C)NC(=O)[C@@H]1CCCN1C(=O)[C@H](CCC(N)=O)NC(=O)[C@H](CC(C)C)NC(=O)[C@H](CO)NC(=O)CNC(=O)[C@H](C)NC(=O)CNC(=O)[C@@H]1CCCN1C(=O)CNC(=O)CNC(=O)CNC(=O)[C@H](CC(C)C)NC(=O)[C@H](CCC(=O)O)NC(=O)[C@@H](NC(=O)[C@H](CCC(N)=O)NC(=O)CNC(=O)[C@@H](NC(=O)[C@H](CCC(N)=O)NC(=O)[C@H](CC(C)C)NC(=O)[C@H](CC(=O)O)NC(=O)[C@H](CCC(=O)O)NC(=O)[C@H](C)NC(=O)[C@@H](N)CCC(=O)O)C(C)C)C(C)C)C(=O)N[C@@H](CCC(=O)O)C(=O)NCC(=O)N[C@@H](CO)C(=O)N[C@@H](CC(C)C)C(=O)N[C@@H](CCC(N)=O)C(=O)O [C-peptide]
mean QTc interval [1]: 0.422 ± 0.006 s | level at time molar [2]: 1.73 ± 0.04 nM | QTc interval, C-peptide phase compared to placebo phase [3]: clear shortening of the QTc interval | QTc interval during C-peptide treatment compared to placebo [4]: decrease in QTc interval
